In US11666640B2, “Glucose oxidase compositions as a neonate anticonvulsant” (PENN STATE RESEARCH FOUNDATION, priority 2018, dated 2023):
Entries after “also recorded” stand apart in the source; their conditions may differ.

What was measured:
CLC-3 channels = molecular target: T1, CLC-3 channels (Rattus norvegicus, UniProt P51792); experiment: Whole-cell Cl− currents in CLC-3-transfected HEK293T cells; assay type: cell-based
T1 construct: host or cells: HEK293T
T1 sequence (P51792 1-760 isoform P51792-2): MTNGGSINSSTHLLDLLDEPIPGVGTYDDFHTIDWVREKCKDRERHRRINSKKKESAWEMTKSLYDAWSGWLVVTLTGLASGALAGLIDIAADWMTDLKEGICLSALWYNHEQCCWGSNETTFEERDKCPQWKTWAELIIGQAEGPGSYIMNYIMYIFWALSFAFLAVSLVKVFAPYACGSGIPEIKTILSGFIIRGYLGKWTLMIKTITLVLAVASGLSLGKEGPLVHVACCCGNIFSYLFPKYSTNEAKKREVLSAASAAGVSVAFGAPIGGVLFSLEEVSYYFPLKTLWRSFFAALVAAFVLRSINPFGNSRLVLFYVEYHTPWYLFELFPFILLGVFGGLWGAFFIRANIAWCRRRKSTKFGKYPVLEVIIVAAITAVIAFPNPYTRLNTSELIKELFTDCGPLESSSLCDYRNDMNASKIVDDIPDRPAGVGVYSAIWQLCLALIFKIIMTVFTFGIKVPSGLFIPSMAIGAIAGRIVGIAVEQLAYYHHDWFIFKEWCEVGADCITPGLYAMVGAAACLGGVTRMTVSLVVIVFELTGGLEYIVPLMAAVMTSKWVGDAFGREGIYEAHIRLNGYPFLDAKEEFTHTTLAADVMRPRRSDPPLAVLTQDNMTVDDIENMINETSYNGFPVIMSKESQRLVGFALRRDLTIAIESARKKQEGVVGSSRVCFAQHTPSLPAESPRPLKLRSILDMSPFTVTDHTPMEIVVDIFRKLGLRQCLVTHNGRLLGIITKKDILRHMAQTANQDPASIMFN

[1] = test system: KA induced neonatal seizure; experiment: KA-induced neonatal seizure, in vivo EEG recording; parameters: species or system rat
Description: For example, neonatal rats were administered gluconate to determine the effect on in vivo epileptic seizures in neonatal and adult animals. […] FIGS. 14A and 14B; Dzhala et al., “NKCC1 transporter facilitates seizures in the developing brain” Nature Medicine 11:1205-1213 (2005). […] FIGS. 14C and 14D.
To test the in vivo anti-epilepsy effects of gluconate in neonatal and adult rodents, P8-12 Sprague-Dawley rats or 2-month old male C57BL/6 mice were deeply anesthetized with pentobarbital sodium (50 mg/kg for neonatal rat and 100 mg/kg for adult mice, intraperitoneal injection). Two stainless steel screws (1 mm in diameter) were inserted in the skull above the cortex as EEG recording electrodes, one ground electrode as well as one reference electrode were located +1.8 mm anterior to bregma, ±0.5 mm lateral to the midline, and 1 mm below the cortical surface. All electrodes were attached to a micro-connector and fixed onto the skull with dental cement. After surgery, neonatal rats were returned to their mothers and allowed to recover for 2 days prior to subsequent EEG recording. The adult mice were single housed in order to prevent damage of the implanted electrodes and allowed to recover at least 5 days before EEG recording.
The baseline of EEG was recorded for 0.5-1 hr to allow the animal to adapt to the environment. Kainic acid (2 mg/kg) was administered intraperitoneally (i.p.) for neonatal epilepsy induction. D-gluconic acid sodium salt (2 g/kg) or 0.9% saline was injected i.p. 10 min after KA administration. Pentylenetetrazol (PTZ) was administered intraperitoneally for inducing a stable epileptic burst activity in adult mice, and D-gluconic acid sodium salt (1 g/kg and 2 g/kg) or 0.9% saline was injected i.p. 10 min before PTZ administration. Epileptiform activity was monitored for 1 hr after PTZ injection. Qian et al., “Epileptiform response of CA1 neurones to convulsant stimulation by cyclothiazide, kainic acid and pentylenetetrazol in anaesthetized rats” Seizure 20:312-319 (2011). After the experiment, animals were injected with diazepam to protect the animals from recurrent epilepsy.
Power was calculated in 1-min time windows by integrating the power of dominant frequency bands from 1 to 100 Hz (EEG band).

CLC-3 Cl− channels = molecular target: T2, CLC-3 Cl− channels (Mus musculus, UniProt P51791); experiment: Voltage-dependent outward rectifying Cl− currents in CA3 pyramidal neurons of hippocampal slices; assay type: cell-based
T2 construct: CA3 pyramidal neurons of hippocampal slices from neonatal mice; from tissue; host or cells: acute hippocampal slices (CA3 pyramidal neurons), C57BL/6 mice
T2 sequence (P51791 1-818): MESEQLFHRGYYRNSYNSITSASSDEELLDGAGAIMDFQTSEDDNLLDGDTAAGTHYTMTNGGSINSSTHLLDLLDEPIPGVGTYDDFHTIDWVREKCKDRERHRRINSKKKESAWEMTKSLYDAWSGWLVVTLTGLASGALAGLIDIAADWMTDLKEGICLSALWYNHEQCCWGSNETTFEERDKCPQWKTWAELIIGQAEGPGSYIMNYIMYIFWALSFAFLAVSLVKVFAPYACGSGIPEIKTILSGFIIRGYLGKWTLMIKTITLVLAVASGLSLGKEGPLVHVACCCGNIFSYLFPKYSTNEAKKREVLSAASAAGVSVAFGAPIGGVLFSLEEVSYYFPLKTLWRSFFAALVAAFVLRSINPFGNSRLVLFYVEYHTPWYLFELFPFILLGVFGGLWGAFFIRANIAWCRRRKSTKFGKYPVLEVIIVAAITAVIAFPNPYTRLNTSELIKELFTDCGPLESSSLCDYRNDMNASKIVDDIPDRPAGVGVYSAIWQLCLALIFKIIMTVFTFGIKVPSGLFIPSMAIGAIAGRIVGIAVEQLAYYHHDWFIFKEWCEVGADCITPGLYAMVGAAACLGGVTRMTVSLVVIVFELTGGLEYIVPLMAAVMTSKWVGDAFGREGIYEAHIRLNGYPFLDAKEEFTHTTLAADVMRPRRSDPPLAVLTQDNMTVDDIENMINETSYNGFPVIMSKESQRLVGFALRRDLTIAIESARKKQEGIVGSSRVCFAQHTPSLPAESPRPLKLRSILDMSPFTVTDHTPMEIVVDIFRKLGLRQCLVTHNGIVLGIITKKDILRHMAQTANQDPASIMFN

[2] = test system: sodium, potassium or calcium channels; experiment: Na+, K+ and Ca2+ currents in cultured cortical neurons; assay type: cell-based, mouse; conditions: 10 mM NaGcA; sodium salt
Description: Experiments were designed to answer the question as to what is/are the molecular target(s) of gluconate. Ion channel regulation was first investigated where a comparison of NaGcA on sodium, potassium or calcium channels was made. […] See, FIGS. 2A-2F. Although it is not necessary to understand the mechanism of an invention, it is believed that since gluconic acid is an organic anion, it might affect neuronal anion channels.

SMILES: O=C([O-])[C@H](O)[C@@H](O)[C@H](O)[C@H](O)CO.[Na+] [NaGcA, D-gluconic acid sodium salt]
- CLC-3-mediated Cl− currents (CLC-3 channels; 20 mM NaGcA, at +90 mV): 544±59 pA
- CLC-3 channel-mediated Cl− currents (inhibition) (CLC-3 channels; 20 mM NaGcA, sodium salt): significantly inhibited; also recorded: significantly reduced
- CLC-3-mediated Cl− currents after washout of NaGcA (CLC-3 channels; after washout, at +90 mV): 925±124 pA
- epileptic seizure (burst) activity in EEG ([1]; P10-12, KA 2 mg/kg i.p., drug i.p. 10 min after KA: NaGcA 2 g/kg, phenobarbital 25 mg/kg, bumetanide 2 mg/kg, sodium salt): significantly inhibited; also recorded: potently inhibited; also recorded: essentially abolished; also recorded: no robust burst discharges
- average power of epileptic activity induced by KA, lowering ([1]; P10-12, NaGcA 2 g/kg i.p. vs saline, 1 min time window): 70%
- reduction of relative EEG power ([1]; last 30 min of a 2-hr recording period after KA injection, neonatal): 72.3%
- Cl− currents after 0 Mg2+ treatment (inhibition) (CLC-3 Cl− channels; 0 Mg2+ aCSF 1 hr, 20 mM NaGcA, sodium salt): remarkable inhibition; also recorded: significantly inhibited; also recorded: significantly blocked; also recorded: remarkably inhibited
- Cl− current density after 0 Mg2+ treatment (CLC-3 Cl− channels; 0 Mg2+ aCSF 1 hr, recorded in 20 mM NaGcA, +90 mV): 7.3±0.6 pA/pF
- Cl− currents in neonatal CA3 pyramidal neurons (CLC-3 Cl− channels; 20 mM NaGcA, neonatal, sodium salt): dramatically reduced; also recorded: potent inhibitor; also recorded: remarkably inhibited
- Cl− currents in CLC-3 KO mice (CLC-3 Cl− channels; CLC-3 KO mice, NaGcA, sodium salt): little inhibition; also recorded: no effect
- Cl− current inhibition by gluconic acid with various counter ions (CLC-3 Cl− channels; P8-12 neonatal mice, 20 mM NaGcA, 10 mM Mg(GcA)2, 20 mM gluconic acid): equivalent Cl− current inhibition
- Cl− currents in adult brains (CLC-3 Cl− channels; adult (P60-62), 20 mM NaGcA): no effect
- Na+, K+ and Ca2+ currents [2]: no significant changes; also recorded: no effect
